ChEMBL document CHEMBL3352388, “Active compounds from a diverse library of triazolothiadiazole and triazolothiadiazine scaffolds: synthesis, crystal structure determination, cytotoxicity, cholinesterase inhibitory activity, and binding mode analysis” (Bioorg Med Chem, 2014)

What was measured:
[1] = biological target: Acetylcholinesterase (Electrophorus electricus) (UniProt O42275); assay: Inhibition of electric eel AChE at 100 uM by Ellman's method
Cholinesterase [2] = biological target: T1, Cholinesterase (Homo sapiens, UniProt P06276); assay: Inhibition of human BChE by Ellman's method
NCI-H157 = assay: Cytotoxicity against human NCI-H157 cells by sulforhodamine B assay; assay type: functional, cell-based
Vero = assay: Cytotoxicity against African green monkey Vero cells by sulforhodamine B assay; assay type: cell-based; parameters: concentration or dose not given beside the values; conditions: chlorocebus sabaeus
Acetylcholinesterase = Acetylcholinesterase (Electrophorus electricus, UniProt O42275); assay: Inhibition of electric eel AChE by Ellman's method
Cholinesterase [3] = biological target: T1, Cholinesterase; assay: Ratio of neostigmine IC50 to compound IC50 for human BChE

T1 sequence (P06276 whole entry): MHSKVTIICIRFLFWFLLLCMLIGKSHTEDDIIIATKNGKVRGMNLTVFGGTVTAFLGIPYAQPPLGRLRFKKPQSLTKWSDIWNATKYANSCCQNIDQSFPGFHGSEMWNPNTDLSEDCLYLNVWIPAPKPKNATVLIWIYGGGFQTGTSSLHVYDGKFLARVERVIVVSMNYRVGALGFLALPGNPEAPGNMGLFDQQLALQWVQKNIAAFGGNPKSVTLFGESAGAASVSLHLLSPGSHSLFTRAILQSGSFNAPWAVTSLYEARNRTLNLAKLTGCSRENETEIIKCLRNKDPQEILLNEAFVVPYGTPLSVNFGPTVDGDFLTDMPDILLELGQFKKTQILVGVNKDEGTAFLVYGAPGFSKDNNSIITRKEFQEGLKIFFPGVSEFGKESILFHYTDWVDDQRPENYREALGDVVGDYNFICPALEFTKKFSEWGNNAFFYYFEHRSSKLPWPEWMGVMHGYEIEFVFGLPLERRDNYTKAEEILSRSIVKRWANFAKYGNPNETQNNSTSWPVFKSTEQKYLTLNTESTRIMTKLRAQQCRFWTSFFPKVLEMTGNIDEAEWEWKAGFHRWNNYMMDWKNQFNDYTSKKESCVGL
Acetylcholinesterase, sequence (O42275 whole entry): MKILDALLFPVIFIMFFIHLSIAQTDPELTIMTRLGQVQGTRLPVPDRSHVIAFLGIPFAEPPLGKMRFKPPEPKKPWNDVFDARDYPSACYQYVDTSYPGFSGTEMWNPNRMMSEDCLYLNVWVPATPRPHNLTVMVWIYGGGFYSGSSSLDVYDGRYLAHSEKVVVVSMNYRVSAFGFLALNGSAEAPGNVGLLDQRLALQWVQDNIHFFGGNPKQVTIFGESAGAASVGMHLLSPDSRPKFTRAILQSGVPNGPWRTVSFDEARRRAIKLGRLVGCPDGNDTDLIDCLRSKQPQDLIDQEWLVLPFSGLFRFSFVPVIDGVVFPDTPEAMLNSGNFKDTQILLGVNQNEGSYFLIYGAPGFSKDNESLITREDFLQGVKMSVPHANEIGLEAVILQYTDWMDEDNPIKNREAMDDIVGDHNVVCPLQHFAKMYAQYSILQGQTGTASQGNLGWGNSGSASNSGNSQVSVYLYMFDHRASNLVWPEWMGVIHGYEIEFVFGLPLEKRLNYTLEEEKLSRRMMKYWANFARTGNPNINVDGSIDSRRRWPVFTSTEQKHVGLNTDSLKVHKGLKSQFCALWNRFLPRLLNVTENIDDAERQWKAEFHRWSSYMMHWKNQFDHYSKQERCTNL
Acetylcholinesterase (Electrophorus electricus), sequence (O42275 24-633 limits assumed): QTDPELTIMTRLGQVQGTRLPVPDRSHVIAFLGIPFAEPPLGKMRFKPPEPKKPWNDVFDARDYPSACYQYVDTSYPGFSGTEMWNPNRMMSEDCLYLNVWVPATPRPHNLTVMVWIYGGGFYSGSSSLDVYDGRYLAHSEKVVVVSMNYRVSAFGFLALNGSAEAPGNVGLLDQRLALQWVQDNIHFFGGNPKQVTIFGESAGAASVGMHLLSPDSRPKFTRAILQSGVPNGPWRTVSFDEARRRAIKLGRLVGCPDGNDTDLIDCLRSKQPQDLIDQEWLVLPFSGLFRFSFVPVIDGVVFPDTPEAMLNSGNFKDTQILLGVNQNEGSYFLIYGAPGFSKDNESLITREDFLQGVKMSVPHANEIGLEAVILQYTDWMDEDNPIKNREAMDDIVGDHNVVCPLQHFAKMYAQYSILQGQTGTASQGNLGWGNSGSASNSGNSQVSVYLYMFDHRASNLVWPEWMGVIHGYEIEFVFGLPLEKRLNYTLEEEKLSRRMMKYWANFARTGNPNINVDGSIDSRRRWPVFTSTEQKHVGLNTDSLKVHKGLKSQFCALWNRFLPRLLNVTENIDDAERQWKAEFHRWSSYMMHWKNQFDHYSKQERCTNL

## Fc1ccc(Cc2nn3c(-c4cccnc4)nnc3s2)cc1
[1]
  inhibition: 32.3%
Cholinesterase [2]
  IC50: 79.9 µM
NCI-H157
  IC50: 1.65 µM
Vero
  Activity: 21.3%

## Clc1ccc(C2=Nn3c(nnc3-c3cccnc3)SC2)cc1Cl
Acetylcholinesterase
  IC50: 38.5 µM
Cholinesterase [2]
  IC50: 64.8 µM
NCI-H157
  IC50: 0.96 µM
Vero
  Activity: 22.2%

## Oc1ccc(OCc2nn3c(-c4cccnc4)nnc3s2)cc1
Acetylcholinesterase
  IC50: 3.09 µM
Cholinesterase [2]
  IC50: 0.585 µM
NCI-H157
  IC50: 3.01 µM
Vero
  Activity: 20.4%

## c1cncc(-c2nnc3sc(-c4ccoc4)nn23)c1
NCI-H157
  IC50: 3.41 µM
Vero
  Activity: 28.4%

## Fc1ccc(OCc2nn3c(-c4cccnc4)nnc3s2)cc1
NCI-H157
  IC50: 1.94 µM
Vero
  Activity: 17.4%

## Fc1ccc(-c2nn3c(-c4cccnc4)nnc3s2)cc1Cl
[1]
  inhibition: 48.4%
Cholinesterase [2]
  IC50: 10.3 µM
NCI-H157
  IC50: 1.08 µM
Vero
  Activity: 23.6%

## CCOc1ccc(Cc2nn3c(-c4cccnc4)nnc3s2)cc1
[1]
  inhibition: 38.4%
Cholinesterase [2]
  IC50: 70.7 µM
NCI-H157
  IC50: 2.92 µM
Vero
  Activity: 22.5%

## Clc1ccc(C2=Nn3c(nnc3-c3cccnc3)SC2)cc1
Acetylcholinesterase
  IC50: 15.1 µM
Cholinesterase [2]
  IC50: 9.82 µM
NCI-H157
  IC50: 3.94 µM
Vero
  Activity: 21.1%

## c1cncc(-c2nnc3n2N=C(c2cccc4ccccc24)CS3)c1
[1]
  inhibition: 17.2%
Cholinesterase [2]
  IC50: 15.9 µM
NCI-H157
  IC50: 5.37 µM
Vero
  Activity: 23.1%

## CC[C@]1(O)C[C@H]2CN(CCc3c([nH]c4ccccc34)[C@@](C(=O)OC)(c3cc4c(cc3OC)N(C=O)[C@H]3[C@@](O)(C(=O)OC)[C@H](OC(C)=O)[C@]5(CC)C=CCN6CC[C@]43[C@@H]65)C2)C1 [VINCRISTINE]
NCI-H157
  IC50: 1.03 µM
Vero
  Activity: 16.81%

## c1ccc(-c2ccc(C3=Nn4c(nnc4-c4cccnc4)SC3)cc2)cc1
Acetylcholinesterase
  IC50: 39.7 µM
Cholinesterase [2]
  IC50: 18.9 µM
NCI-H157
  IC50: 4.32 µM
Vero
  Activity: 26.1%

## Cc1ccccc1OCc1nn2c(-c3cccnc3)nnc2s1
NCI-H157
  IC50: 3.29 µM
Vero
  Activity: 20.9%

## c1cncc(-c2nnc3sc(-c4ccco4)nn23)c1
Acetylcholinesterase
  IC50: 21.2 µM
Cholinesterase [2]
  IC50: 6.03 µM
NCI-H157
  IC50: 3.16 µM
Vero
  Activity: 23.9%

## Cc1ccc(OCc2nn3c(-c4cccnc4)nnc3s2)cc1
Acetylcholinesterase
  IC50: 11.3 µM
Cholinesterase [2]
  IC50: 4.76 µM
NCI-H157
  IC50: 2.98 µM
Vero
  Activity: 23.8%

## Cc1ccc(C2=Nn3c(nnc3-c3cccnc3)SC2)cc1
[1]
  inhibition: 28.7%
Cholinesterase [2]
  IC50: 25.4 µM
NCI-H157
  IC50: 3.87 µM
Vero
  Activity: 27.3%

## Fc1cc(Cl)ccc1-c1nn2c(-c3cccnc3)nnc2s1
[1]
  inhibition: 36.2%
Cholinesterase [2]
  IC50: 37.4 µM
NCI-H157
  IC50: 1.87 µM
Vero
  Activity: 26.7%

## COc1ccc(C2=Nn3c(nnc3-c3cccnc3)SC2)cc1
[1]
  inhibition: 15.2%
Cholinesterase [2]
  IC50: 0.781 µM
Cholinesterase [3]
  Ratio IC50: 23
NCI-H157
  IC50: 1.67 µM
Vero
  Activity: 27.8%

## Fc1ccc(C2=Nn3c(nnc3-c3cccnc3)SC2)cc1
[1]
  inhibition: 40.8%
Cholinesterase [2]
  IC50: 4.92 µM
NCI-H157
  IC50: 1.85 µM
Vero
  Activity: 18.4%

## CN(C)C(=O)Oc1cccc([N+](C)(C)C)c1 [NEOSTIGMINE]
Cholinesterase [2]
  IC50: 16.3 µM

## c1cncc(-c2nnc3sc(-c4ccc[nH]4)nn23)c1
Acetylcholinesterase
  IC50: 13.7 µM
Cholinesterase [2]
  IC50: 13.7 µM
NCI-H157
  IC50: 5.14 µM
Vero
  Activity: 19.2%

## O=[N+]([O-])c1ccc(C2=Nn3c(nnc3-c3cccnc3)SC2)cc1
Acetylcholinesterase
  IC50: 18.3 µM
Cholinesterase [2]
  IC50: 1.09 µM
Cholinesterase [3]
  Ratio IC50: 15
NCI-H157
  IC50: 1.42 µM
Vero
  Activity: 10.7%

## COc1ccc(OCc2nn3c(-c4cccnc4)nnc3s2)cc1
[1]
  inhibition: 39.5%
Cholinesterase [2]
  IC50: 55.8 µM
NCI-H157
  IC50: 1.95 µM
Vero
  Activity: 24.1%

## Cc1occc1-c1nn2c(-c3cccnc3)nnc2s1
Acetylcholinesterase
  IC50: 37.7 µM
Cholinesterase [2]
  IC50: 58.6 µM
NCI-H157
  IC50: 2.93 µM
Vero
  Activity: 24.3%

## Oc1ccccc1OCc1nn2c(-c3cccnc3)nnc2s1
Acetylcholinesterase
  IC50: 35.5 µM
Cholinesterase [2]
  IC50: 3.02 µM
NCI-H157
  IC50: 3.67 µM
Vero
  Activity: 22.7%
